Assay results published in ChEMBL document CHEMBL1151883, “Design and synthesis of bisenediyne bissulfones and their reactivity under basic condition” (Bioorg Med Chem Lett, 2009).
The source made the active and inactive calls. No cut-off for these calls is given here.

What was measured:
Assay type in all cases: nucleic-acid assay
Conditions in all cases: Escherichia coli
[1] = system: Nucleic Acid; test: Induction of supercoiled pBR322 DNA cleavage at PH 7.2 after 8 hrs at 37 degC in absence of triethylamine
[2] = system: Nucleic Acid; test: Induction of supercoiled pBR322 DNA cleavage at PH 7.2 after 16 hrs at 37 degC in absence of triethylamine
[3] = system: Nucleic Acid; test: Induction of supercoiled pBR322 DNA cleavage at PH 7.2 after 16 hrs at 37 degC in presence of triethylamine
[4] = system: Nucleic Acid; test: Induction of supercoiled pBR322 DNA cleavage at PH 7.2 after 8 hrs at 37 degC in presence of triethylamine

Activity [1] | Activity [2] | Activity [3] [%] | Activity [4] [%] | SMILES
Active | Active | – | – | O=S(=O)(C=C=Cc1ccccc1C#CC#Cc1ccccc1C#CCS(=O)(=O)c1ccccc1)c1ccccc1
Active | Active | – | – | O=S(=O)(C=C=Cc1ccccc1C#Cc1ccccc1C#CCS(=O)(=O)c1ccccc1)c1ccccc1
– | – | 45 | 45 | O=S(=O)(CC#Cc1ccccc1C#Cc1ccccc1C#CCS(=O)(=O)c1ccccc1)c1ccccc1
– | – | 62 | 47 | O=S(=O)(CC#Cc1ccccc1C#CC#Cc1ccccc1C#CCS(=O)(=O)c1ccccc1)c1ccccc1
